Laboratory results as given in ChEMBL document CHEMBL5346863, “Discovery of substituted benzyloxy-benzylamine inhibitors of acetyltransferase Eis and their anti-mycobacterial activity” (Eur J Med Chem, 2022).
Converted amounts (≈) assume the structure as drawn. The source made the active and inactive calls. No cut-off for these calls is given here.

Columns and labels:
N-acetyltransferase Eis = target: T1, N-acetyltransferase Eis (Mycobacterium tuberculosis (strain ATCC 25618 / H37Rv), UniProt P9WFK7); experiment: Inhibition of wild-type Mycobacterium tuberculosis Eis expressed in Escherichia coli BL21(DE3) cells incubated for 5 mins by Ellman's method
T1 sequence (P9WFK7 whole entry): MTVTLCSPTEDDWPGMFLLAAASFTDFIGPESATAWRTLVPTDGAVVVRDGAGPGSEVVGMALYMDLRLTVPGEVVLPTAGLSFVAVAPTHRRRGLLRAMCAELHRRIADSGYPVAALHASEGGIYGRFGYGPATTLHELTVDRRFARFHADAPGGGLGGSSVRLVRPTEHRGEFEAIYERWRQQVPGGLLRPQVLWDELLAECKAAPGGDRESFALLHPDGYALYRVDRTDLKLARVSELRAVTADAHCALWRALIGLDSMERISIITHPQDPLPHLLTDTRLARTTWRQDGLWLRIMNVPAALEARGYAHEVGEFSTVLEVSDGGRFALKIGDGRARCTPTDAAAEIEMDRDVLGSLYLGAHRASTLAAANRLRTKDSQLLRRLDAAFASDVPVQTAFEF

[1] = test system: Mycobacterium intracellulare; experiment: Antibacterial activity against Mycobacterium intracellulare ATCC 13950 assessed as bacterial growth inhibition incubated for 2 to 3 weeks by resazurin dye based assay; assay type: functional; conditions: time 2-3 weeks
[2] = test system: Mycobacterium tuberculosis; experiment: Antibacterial activity against Mycobacterium tuberculosis mc2 6230 assessed as bacterial growth inhibition incubated 2 to 3 weeks by resazurin dye based assay; assay type: functional; conditions: time 2-3 weeks
[3] = test system: Mycolicibacterium smegmatis; experiment: Antibacterial activity against Mycobacterium smegmatis mc2 122 assessed as bacterial growth inhibition incubated for 2 to 3 weeks by resazurin dye based assay; assay type: functional; conditions: time 2-3 weeks
Mycobacterium avium = experiment: Antibacterial activity against Mycobacterium avium ATCC 25291 assessed as bacterial growth inhibition incubated for 2 to 3 weeks by resazurin dye based assay; assay type: functional; conditions: time 2-3 weeks
[4] = test system: Mycobacteroides abscessus; experiment: Antibacterial activity against Mycobacterium abscessus ATCC 19977 assessed as bacterial growth inhibition incubated for 2 to 3 weeks by resazurin dye based assay; assay type: functional; conditions: time 2-3 weeks
[5] = test system: Mycobacterium tuberculosis; experiment: Antibacterial activity against Mycobacterium tuberculosis H37Ra assessed as bacterial growth inhibition incubated 2 to 3 weeks by resazurin dye based assay; assay type: functional; conditions: time 2-3 weeks
[6] = test system: Mycobacterium parascrofulaceum; experiment: Antibacterial activity against Mycobacterium parascrofulaceum ATCC BAA-614 assessed as bacterial growth inhibition incubated for 2 to 3 weeks by resazurin dye based assay; assay type: functional; conditions: time 2-3 weeks
[7] = test system: Mycobacterium tuberculosis; experiment: Antibacterial activity against Mycobacterium tuberculosis H37Rv assessed as MIC of kanamycin A at 100 uM incubated for 24 hrs followed by kanamycin A addition measured after 6 days by alamarblue dye based assay; assay type: functional; conditions: for Activity: time 7.0 day
HEK293 = experiment: Cytotoxicity against HEK293 cells upto 12.5 uM incubated for 24 hrs by resazurin dye based cell viability assay; assay type: toxicity; conditions: human, hek293, 24 h
J774.1 = experiment: Cytotoxicity against mouse J774.1 cells upto 12.5 uM incubated for 24 hrs by resazurin dye based cell viability assay; assay type: toxicity; conditions: j774.1, 24 h
A549 = experiment: Cytotoxicity against human A549 cells upto 12.5 uM incubated for 24 hrs by resazurin dye based cell viability assay; assay type: toxicity; conditions: a549, 24 h
[8] = test system: Mycobacterium tuberculosis; experiment: Antibacterial activity against Mycobacterium tuberculosis mc2 6230 K204 assessed as MIC of kanamycin A at 25 uM incubated for 24 hrs followed by kanamycin A addition measured after 6 days by alamarblue dye based assay; assay type: functional; conditions: Mycobacterium tuberculosis, mc2 6230 K204, 168 h, time 7 day, read-out: MIC
[9] = test system: Mycobacterium tuberculosis; experiment: Antibacterial activity against Mycobacterium tuberculosis mc2 6230 assessed as MIC of kanamycin A at 25 uM incubated for 24 hrs followed by kanamycin A addition measured after 6 days by alamarblue dye based assay; assay type: functional; conditions: mc2 6230, 168 h, time 7 day
[10] = test system: Mycobacterium tuberculosis; experiment: Antibacterial activity against Mycobacterium tuberculosis H37Rv assessed as MIC of kanamycin A at 95.9 uM incubated for 24 hrs followed by kanamycin A addition measured after 6 days by alamarblue dye based assay; assay type: functional, organism-based; conditions: time 7.0 day
[11] = test system: Mycobacterium tuberculosis; experiment: Antibacterial activity against Mycobacterium tuberculosis K204 assessed as MIC of kanamycin A at 95.9 uM incubated for 24 hrs followed by kanamycin A addition measured after 6 days by alamarblue dye based assay; assay type: functional, organism-based; conditions: time 7.0 day

SMILES	IC50 (N-acetyltransferase Eis)	MIC [1]	MIC [2]	MIC [3]	MIC (Mycobacterium avium)	MIC [4]	MIC [5]	MIC [6]	Activity [7]	Activity (HEK293)	Activity (J774.1)	Activity (A549)	MIC [8]	MIC [9]	MIC ([7]; 168 h, time 7 day)	Activity [10]	Activity [11]
c1ccc(COc2ccc(CNCc3ccncc3)cc2)cc1	~40 µM	62.5 µM (≈ 19 µg/mL)	50 µM (≈ 15.2 µg/mL)	> 62.5 µM	2 µM (≈ 0.609 µg/mL)	> 62.5 µM	> 62.5 µM	–	–	–	–	–	–	–	–	–	–
Fc1ccc(COc2cccc(CNCc3ccncc3)c2)cc1	14 µM	> 62.5 µM	100 µM (≈ 32.2 µg/mL)	> 62.5 µM	> 62.5 µM	> 62.5 µM	31.3 µM (≈ 10.1 µg/mL)	> 62.5 µM	Active	–	–	–	–	–	–	–	–
Fc1ccc(COc2ccccc2CNCc2ccccc2)cc1	~8 µM	31.3 µM (≈ 10.1 µg/mL)	50 µM (≈ 16.1 µg/mL)	> 62.5 µM	> 62.5 µM	31.3 µM (≈ 10.1 µg/mL)	31.3 µM (≈ 10.1 µg/mL)	31.3 µM (≈ 10.1 µg/mL)	Active	Non-Toxic	Non-Toxic	Non-Toxic	–	–	–	–	–
CC(C)c1ccc(COc2ccc(CNCc3ccccc3)cc2)cc1	1.4 µM	2 µM (≈ 0.691 µg/mL)	0.78 µM (≈ 0.269 µg/mL)	3.9 µM (≈ 1.35 µg/mL)	15.6 µM (≈ 5.39 µg/mL)	7.8 µM (≈ 2.69 µg/mL)	≤ 0.5 µM	–	–	–	–	–	–	–	–	–	–
Brc1ccccc1COc1ccc(CNCc2ccccc2)cc1	~8 µM	3.9 µM (≈ 1.49 µg/mL)	100 µM (≈ 38.2 µg/mL)	1 µM (≈ 0.382 µg/mL)	15.6 µM (≈ 5.96 µg/mL)	31.3 µM (≈ 12 µg/mL)	3.9 µM (≈ 1.49 µg/mL)	3.9 µM (≈ 1.49 µg/mL)	–	–	–	–	–	–	–	–	–
Brc1cccc(COc2ccc(CNCc3ccccc3)cc2)c1	2.4 µM	3.9 µM (≈ 1.49 µg/mL)	50 µM (≈ 19.1 µg/mL)	2 µM (≈ 0.765 µg/mL)	31.3 µM (≈ 12 µg/mL)	31.3 µM (≈ 12 µg/mL)	3.9 µM (≈ 1.49 µg/mL)	2 µM (≈ 0.765 µg/mL)	–	–	–	–	≤ 1.25 µM	< 1.25 µM	–	–	–
CC(C)(C)c1ccc(COc2ccc(CNCc3ccccc3)cc2)cc1	> 200 µM	–	12.5 µM (≈ 4.49 µg/mL)	3.9 µM (≈ 1.4 µg/mL)	31.3 µM (≈ 11.3 µg/mL)	7.8 µM (≈ 2.8 µg/mL)	1 µM (≈ 0.36 µg/mL)	–	–	–	–	–	–	–	–	–	–
NCC[C@H](O)C(=O)N[C@@H]1C[C@H](N)[C@@H](O[C@H]2O[C@H](CN)[C@@H](O)[C@H](O)[C@H]2O)[C@H](O)[C@H]1O[C@H]1O[C@H](CO)[C@@H](O)[C@H](N)[C@H]1O [AMIKACIN]	–	≤ 0.25 µM	–	≤ 0.25 µM	3.9 µM (≈ 2.28 µg/mL)	1 µM (≈ 0.586 µg/mL)	–	0.25 µM (≈ 0.146 µg/mL)	–	–	–	–	–	–	–	–	–
c1ccc(COc2ccc(CNCc3cccnc3)cc2)cc1	~40 µM	31.3 µM (≈ 9.53 µg/mL)	100 µM (≈ 30.4 µg/mL)	> 62.5 µM	31.3 µM (≈ 9.53 µg/mL)	> 62.5 µM	31.3 µM (≈ 9.53 µg/mL)	–	–	–	–	–	–	–	–	–	–
c1ccc(CNCc2ccc(OCc3ccccc3)cc2)cc1	> 200 µM	15.6 µM (≈ 4.73 µg/mL)	100 µM (≈ 30.3 µg/mL)	–	62.5 µM (≈ 19 µg/mL)	> 62.5 µM	62.5 µM (≈ 19 µg/mL)	3.9 µM (≈ 1.18 µg/mL)	–	–	–	–	–	–	–	–	–
Brc1ccc(COc2ccccc2CNCc2ccncc2)cc1	4.3 µM	–	25 µM (≈ 9.58 µg/mL)	> 62.5 µM	> 62.5 µM	> 62.5 µM	–	–	–	–	–	–	–	–	≤ 1.25 µg/mL	–	–
Brc1ccc(COc2ccccc2CNCc2cccnc2)cc1	~8 µM	> 62.5 µM	100 µM (≈ 38.3 µg/mL)	–	> 62.5 µM	> 62.5 µM	–	> 62.5 µM	Active	Non-Toxic	Non-Toxic	Non-Toxic	–	–	–	Active	Active
Brc1ccc(COc2ccc(CNCc3ccccc3)cc2)cc1	1.5 µM	15.6 µM (≈ 5.96 µg/mL)	12.5 µM (≈ 4.78 µg/mL)	7.8 µM (≈ 2.98 µg/mL)	62.5 µM (≈ 23.9 µg/mL)	15.6 µM (≈ 5.96 µg/mL)	7.8 µM (≈ 2.98 µg/mL)	7.8 µM (≈ 2.98 µg/mL)	–	–	–	–	–	–	–	–	–
Fc1ccc(COc2cccc(CNCc3ccccc3)c2)cc1	7.3 µM	–	50 µM (≈ 16.1 µg/mL)	–	15.6 µM (≈ 5.01 µg/mL)	31.3 µM (≈ 10.1 µg/mL)	3.9 µM (≈ 1.25 µg/mL)	–	–	–	–	–	–	–	–	–	–
